The target in this assay is T1, NPR-B (Homo sapiens, UniProt P20594).
T1 construct: a functional assay using endogenously NPR-B expressing GTM-3 cells; endogenous in cells; host or cells: GTM-3 (transformed human trabecular meshwork cells)
T1 sequence (P20594 23-1047): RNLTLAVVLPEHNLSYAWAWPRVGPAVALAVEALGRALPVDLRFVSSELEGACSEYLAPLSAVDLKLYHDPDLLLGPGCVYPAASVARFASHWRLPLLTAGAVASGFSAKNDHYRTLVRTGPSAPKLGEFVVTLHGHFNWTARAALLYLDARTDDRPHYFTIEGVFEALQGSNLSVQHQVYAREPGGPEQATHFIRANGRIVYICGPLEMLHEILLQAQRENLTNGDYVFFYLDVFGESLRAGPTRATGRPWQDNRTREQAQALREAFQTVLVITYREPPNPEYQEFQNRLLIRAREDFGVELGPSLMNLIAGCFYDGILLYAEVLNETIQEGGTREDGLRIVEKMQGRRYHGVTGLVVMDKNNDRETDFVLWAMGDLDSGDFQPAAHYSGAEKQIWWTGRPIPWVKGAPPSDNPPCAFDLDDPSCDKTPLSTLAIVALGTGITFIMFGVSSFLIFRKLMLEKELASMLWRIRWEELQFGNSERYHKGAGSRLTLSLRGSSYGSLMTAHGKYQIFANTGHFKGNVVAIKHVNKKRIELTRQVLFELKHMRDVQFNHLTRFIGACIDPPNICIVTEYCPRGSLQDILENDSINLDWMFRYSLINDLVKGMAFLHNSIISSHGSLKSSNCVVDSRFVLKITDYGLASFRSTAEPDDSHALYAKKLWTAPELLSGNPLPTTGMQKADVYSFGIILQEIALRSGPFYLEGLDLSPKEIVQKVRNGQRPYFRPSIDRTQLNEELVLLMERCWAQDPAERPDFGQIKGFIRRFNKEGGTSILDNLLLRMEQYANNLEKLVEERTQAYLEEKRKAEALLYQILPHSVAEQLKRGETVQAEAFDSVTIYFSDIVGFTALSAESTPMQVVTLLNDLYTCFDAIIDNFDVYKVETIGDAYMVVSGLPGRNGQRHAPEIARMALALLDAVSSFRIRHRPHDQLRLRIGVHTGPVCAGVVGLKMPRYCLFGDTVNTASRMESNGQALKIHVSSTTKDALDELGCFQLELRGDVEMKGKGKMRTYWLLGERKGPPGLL
Kind of assay: NPR-B induced production of cyclic GMP in GTM-3 cells. The format is cell-based. To be noted: GTM-3 cells; group needs both EC50 and Emax criteria, checked A then B then C; read-out: Activity (group): NPR-B activation, EC50 and Emax (CNP = 100%). The procedure:
The efficacy and potency of compounds to activate NPR-B were evaluated in a functional assay using endogenously NPR-B expressing GTM-3 cells (Pang et al. 1994, Curr Eye Res 13:51-63). In this assay the dose dependent production of cyclic GMP (cGMP) is determined and Emax (maximum activation) and EC50 values are calculated.
The cell culture medium is aspirated and each well is washed with 200 μl DMEM/Ham's F12=Medium (Gibco). Then, 200 μl Medium supplemented with 1 mM IBMX (3-Isobutyl-1-methyl-xanthin, Sigma) is added to each well and incubated for 15 min. at room temperature.
Final compound concentrations are in the range from 45 μM to 20 nM.

Where a SMILES comes first, the peptide text is derived from it. Bridges are numbered along the chain shown (N, C = ends).

Regarding `CC[C@H](C)[C@@H]1NC(=O)[C@H](CCCNC(=N)N)NC(=O)[C@H](CC(=O)O)NC(=O)[C@H](CC(C)C)NC(=O)[C@H](CCCCN)NC(=O)[C@H](CC(C)C)NC(=O)CNC(=O)[C@H](Cc2ccccc2)NC(=O)[C@H](Cc2c[nH]cn2)NC(=O)[C@@H](NC(=O)[C@@H](N)CCSC)CSSC[C@@H](C(=O)N[C@@H](CC(C)C)C(=O)N[C@@H](CCCNC(=N)N)C(N)=O)NC(=O)[C@H](CO)NC1=O` [compound 23] (H-MCHFGLKLDRISCLR-NH2; disulfide 2-13), the EC50 – broadly, the concentration that produces a half-maximal response – was < 5 µM.
Then `CC[C@H](C)[C@@H]1NC(=O)[C@H](CCCNC(=N)N)NC(=O)[C@H](CC(=O)O)NC(=O)[C@H](CC(C)C)NC(=O)[C@H](CCCCN)NC(=O)[C@H](CC(C)C)NC(=O)CNC(=O)[C@H](Cc2ccccc2)NC(=O)[C@H](Cc2c[nH]cn2)NC(=O)[C@@H](NC(=O)[C@@H](N)CCSC)CSSC[C@@H](C(=O)N[C@@H](CO)C(=O)N[C@@H](CCCNC(=N)N)C(N)=O)NC(=O)[C@H](CO)NC1=O` [compound 24] (H-MCHFGLKLDRISCSR-NH2; disulfide 2-13), with < 5 µM; and `CC[C@H](C)[C@@H]1NC(=O)[C@H](CCCNC(=N)N)NC(=O)[C@H](CC(=O)O)NC(=O)[C@H](CC(C)C)NC(=O)[C@H](CCCCN)NC(=O)[C@H](CC(C)C)NC(=O)CNC(=O)[C@H](Cc2ccccc2)NC(=O)[C@H](Cc2c[nH]cn2)NC(=O)[C@@H](NC(=O)[C@@H](N)CCSC)CSSC[C@@H](C(=O)N[C@@H](Cc2c[nH]cn2)C(=O)N[C@@H](CCCNC(=N)N)C(N)=O)NC(=O)[C@H](CO)NC1=O` [compound 25] (H-MCHFGLKLDRISCHR-NH2; disulfide 2-13), with < 15 µM; and `CC[C@H](C)[C@@H]1NC(=O)[C@H](CCCNC(=N)N)NC(=O)[C@H](CC(=O)O)NC(=O)[C@H](CC(C)C)NC(=O)[C@H](CCCCN)NC(=O)[C@H](CC(C)C)NC(=O)CNC(=O)[C@H](Cc2ccccc2)NC(=O)[C@H](Cc2c[nH]cn2)NC(=O)[C@@H](NC(=O)[C@@H](N)CCSC)CSSC[C@@H](C(=O)N[C@@H](Cc2ccc(O)cc2)C(=O)N[C@@H](CO)C(N)=O)NC(=O)[C@H](CO)NC1=O` [compound 26] (H-MCHFGLKLDRISCYS-NH2; disulfide 2-13), with < 15 µM.
Then `CC[C@H](C)[C@@H]1NC(=O)[C@H](CCCNC(=N)N)NC(=O)[C@H](CC(=O)O)NC(=O)[C@H](CC(C)C)NC(=O)[C@H](CCCCN)NC(=O)[C@H](CC(C)C)NC(=O)CNC(=O)[C@H](Cc2ccccc2)NC(=O)[C@H](Cc2c[nH]cn2)NC(=O)[C@@H](NC(=O)[C@@H](N)CCSC)CSSC[C@@H](C(=O)N[C@@H](Cc2ccc(O)cc2)C(=O)N[C@@H](CC(N)=O)C(N)=O)NC(=O)[C@H](CO)NC1=O` [compound 27] (H-MCHFGLKLDRISCYN-NH2; disulfide 2-13), with < 5 µM; and `CC[C@H](C)[C@@H]1NC(=O)[C@H](CCCNC(=N)N)NC(=O)[C@H](CC(=O)O)NC(=O)[C@H](CC(C)C)NC(=O)[C@H](CCCCN)NC(=O)[C@H](CC(C)C)NC(=O)CNC(=O)[C@H](Cc2ccccc2)NC(=O)[C@H](Cc2c[nH]cn2)NC(=O)[C@@H](NC(=O)[C@@H](N)CCSC)CSSC[C@@H](C(=O)N[C@@H](Cc2ccc(O)cc2)C(=O)N[C@@H](Cc2c[nH]cn2)C(N)=O)NC(=O)[C@H](CO)NC1=O` [compound 28] (H-MCHFGLKLDRISCYH-NH2; disulfide 2-13), with < 5 µM.
For the molecule `CC[C@H](C)[C@@H]1NC(=O)[C@H](CCCNC(=N)N)NC(=O)[C@H](CC(=O)O)NC(=O)[C@H](CC(C)C)NC(=O)[C@H](CCCCN)NC(=O)[C@H](CC(C)C)NC(=O)CNC(=O)[C@H](Cc2ccc(Cl)cc2)NC(=O)[C@H](Cc2c[nH]cn2)NC(=O)[C@@H](NC(=O)[C@@H](N)CCSC)CSSC[C@@H](C(N)=O)NC(=O)[C@H](CO)NC1=O` [compound 29], the EC50 is < 15 µM.
The result for `CC[C@H](C)[C@@H]1NC(=O)[C@H](CCCNC(=N)N)NC(=O)[C@H](CC(=O)O)NC(=O)[C@H](CC(C)C)NC(=O)[C@H](CCCCN)NC(=O)[C@H](CC(C)C)NC(=O)CNC(=O)[C@H](Cc2ccccc2)NC(=O)CCCNC(=O)[C@@H](NC(=O)[C@@H](N)CCSC)CSSC[C@@H](C(N)=O)NC(=O)[C@H](CO)NC1=O` [compound 32] reads < 15 µM.

The values are drawn from patent US9458198B1, “Cyclic peptide-based NPR-B agonists” (priority 2009, dated 2016).
